Reference: US5852016A, “Quinoxaline derivatives useful in therapy” (Pfizer Inc., priority 1994, dated 1998)

Biological target: T1, glycine site of the NMDA receptor (Rattus norvegicus, UniProt P35439)
T1 construct: displace a selective glycine site radioligand from rat brain membranes; from tissue; host or cells: rat brain membranes
Assay: Binding affinity for the glycine site of the NMDA receptor (test (a))
Details: displacement of selective glycine site radioligand ([3H]-L-689,560) from rat brain membranes
Procedure: (a) Binding affinity for the glycine site of the NMDA receptor
This may be measured by testing a compound's ability to displace a selective glycine site radioligand from rat brain membranes as described in Brit J Pharm (1991), 104, 74. In a variation of this method, thoroughly washed membrane protein is incubated with [^3 H]-L-689,560 for 90 minutes using tris-acetate buffer (pH 7.4). Displacement of the radioligand, using a range of test compound concentrations, is used to derive IC50 (50% inhibitory concentration) values.

Row | IC50 | SMILES
1 | < 50 nM | CCS(=O)(=O)Nc1c(Cl)c(Cl)cc2[nH]c(=O)c(=O)[nH]c12 [Example 1, N-(1,4-Dihydro-6,7-dichloro-2,3-dioxoguinoxalin-5-yl)ethanesulphonamide]
2 | < 50 nM | CN(c1c(Cl)c(Cl)cc2[nH]c(=O)c(=O)[nH]c12)S(C)(=O)=O [Example 8]

The next lines start with the compound.

Row | SMILES | IC50
3 | Cn1c(CN(c2c(Cl)c(Cl)cc3[nH]c(=O)c(=O)[nH]c23)S(C)(=O)=O)nc2ccccc21 [Example 56] | < 50 nM
4 | CS(=O)(=O)N(CCO)c1c(Cl)c(Cl)cc2[nH]c(=O)c(=O)[nH]c12 (racemic) [Example 17, (RS)-N-(f1,4-Dihydro-6,7-dichloro-2,3-dioxoquinoxaline-5-yl)-N-(2-hydroxyethyl)methanesulphonamide] | < 50 nM
5 | CS(=O)(=O)N(CC(=O)O)c1c(Cl)c(Cl)cc2[nH]c(=O)c(=O)[nH]c12 (racemic) [Example 70, (RS)-N-(Carboxymethyl)-N-(1,4-dihydro-6,7-dichloro-2,3-dioxoquinoxaline-5-yl)methanesulphonamide] | < 50 nM
6 | CS(=O)(=O)N(CCCO)c1c(Cl)c(Cl)cc2[nH]c(=O)c(=O)[nH]c12 [Example 29] | < 50 nM
7 | CCc1c(Cl)cc2[nH]c(=O)c(=O)[nH]c2c1N(CCO)S(C)(=O)=O [Example 40] | < 50 nM
